Test results: patent US20240115470A1, “METHYL-FLUORO-HYDROXYBENZOATES IN CONSUMER PRODUCTS” (GIVAUDAN SA, priority 2020, published 2024)

Key:
[1] = GC-odor threshold concentration (gas chromatograph with sniff port, panel of trained evaluators); settings: for odor threshold concentration compared to methyl salicylate and other methyl-fluoro-hydroxybenzoates (in words): general statement in description; for odor threshold concentration (relative): relative values, identical conditions, GC sniff port
Procedure: Definition: The odour threshold concentration is defined as the lowest concentration of the vapour of an odorant material in the air which can be detected by smell and can be measured by standard methods known in the art.
According to standard procedures known to the person skilled in the art, threshold concentrations for volatile perfumery compounds are determined on a gas chromatograph equipped with a sniff port by a panel of trained evaluators. The lowest concentration smelled by each panelist is recorded as the individual threshold concentration expressed in ng (absolute amount of compound delivered at the sniff port).
Under identical conditions the odor threshold concentration for […]

[2] = Assessment of the odor profile on smelling strips by panellists, compared to methyl salicylate; settings: for Odor description: compound @10 wt % in polyethylene glycol, freshly dipped on smelling strips, compared to methyl salicylate; for odor profile compared to methyl salicylate (summary statement) / sweet aspect of odor profile: general statement in description
Procedure: A 10 wt % solution of the purified samples of Example 1 were prepared (compound @10 wt % in polyethylene glycol). The odor profile was assessed freshly dipped on smelling strips.
Panellists have been asked to provide an odor description as compared to methyl salicylate.

[3] = Light floral cologne accord, replacement of 4 parts DPG; settings: 4 parts DPG of 1000 replaced by the compound
Excerpt: The accord above represents a light floral cologne accord, suitable for fine perfumery at a dosage of e.g. 5 weight %.
Without methyl salicylate, the accord lacks initial freshness and neutrality on the top note.
Thus an accord was obtained which compensates the effects normally achieved by the presence of methyl salicylate, thus a useful compensation of methyl salicylate is obtained.

[4] = Replacement of methyl salicylate in wintergreen flavor formulation for toothpaste; settings: 20 parts methyl salicylate replaced by 0.2 parts compound and 19.8 parts PG
Excerpt: The formulation above is a typical wintergreen type flavor suitable for the use in toothpaste products, at a dosage of, e.g. 1.2 wt %.

[5] = Replacement of methyl salicylate in wintergreen flavor formulation for mouthwash; settings: 20 parts methyl salicylate replaced by 0.2 parts compound and 19.8 parts PG
Excerpt: The formulation above is a typical wintergreen type flavor suitable for the use in mouthwash products, at a dosage of, e.g. 0.3 wt %.

Structure (SMILES) | odor threshold concentration compared to methyl salicylate and other methyl-fluoro-hydroxybenzoates (in words) [1] | odor threshold concentration (relative) [1] | Odor description [2] | odor profile compared to methyl salicylate (summary statement) [2] | sweet aspect of odor profile [2] | olfactory effect on accord [3] | flavor profile after replacement of methyl salicylate [4] | odor threshold concentration, times lower than methyl 3-fluoro-2-hydroxybenzoate ([1]; versus methyl 3-fluoro-2-hydroxybenzoate) | odor threshold concentration, times lower than methyl salicylate ([1]; versus methyl salicylate) | flavor profile after replacement of methyl salicylate [5]
COC(=O)c1c(O)cccc1F [methyl 2-fluoro-6-hydroxybenzoate] | surprisingly low | 1 | Sweetness, elements of wintergreen, | very similar to methyl salicylate | possessing these sweet aspect |  |  |  |  | 
COC(=O)c1ccccc1O [methyl 2-hydroxybenzoate, reference compound] |  | 22 |  |  |  | helps to reinforce the fresh, transparent, natural top note |  |  |  | 
COC(=O)c1cccc(F)c1O [methyl 3-fluoro-2-hydroxybenzoate, reference compound] |  | 42 | Medicinal note, technical |  |  |  |  |  |  | 
COC(=O)c1ccc(F)cc1O [methyl 4-fluoro-2-hydroxybenzoate] | surprisingly low | 4 | Wintergreen, typical methyl salicylate | very similar to methyl salicylate | possessing these sweet aspect | fresh and green natural effect on the top note | profile with very similar characteristics | more than 10 times | more than 5 times | profile with very similar characteristics
COC(=O)c1cc(F)ccc1O [methyl 5-fluoro-2-hydroxybenzoate, reference compound] |  | 36 | less sweetness, methyl salicylate character |  |  |  |  |  |  | 
